This note sets out measurements from patent publication US6828348B2, “L-ascorbic acid-2-o-maleic acid-a-tocopherol diester 1-propanol adduct and process for producing the same” (Senju Pharmaceutical Co., Ltd., priority 2002, dated 2004).

The conditions of data set [1]: 4 weeks, liquid chromatography. The method, then:
The experimental conditions are as follows:
Detector: Ultraviolet absorptiometer (wave length: 220 nm)
Column: A stainless steel tube of 6 mm ID and 15 cm length being packed with octadecylated silica gel of […] in particle size designed for use in liquid chromatograph.
Mobile phase: As prepared by dissolving 0.4 g of crystalline sodium dihydrogenphosphate and 0.3 g of sodium chloride in 50 ml of water, and adding 500 ml of methanol and 450 ml of acetonitrile, followed by addition of phosphoric acid to adjust to pH 4.0.
Flow rate: As regulated so that the retention time may be about 12 min.

For data set [2], the target named is T1, elastase originated from human white blood cells (Homo sapiens, UniProt P08246).
T1 construct: elastase originated from human white blood cells; from tissue; host or cells: human white blood cells
T1 sequence (P08246 30-247 limits assumed): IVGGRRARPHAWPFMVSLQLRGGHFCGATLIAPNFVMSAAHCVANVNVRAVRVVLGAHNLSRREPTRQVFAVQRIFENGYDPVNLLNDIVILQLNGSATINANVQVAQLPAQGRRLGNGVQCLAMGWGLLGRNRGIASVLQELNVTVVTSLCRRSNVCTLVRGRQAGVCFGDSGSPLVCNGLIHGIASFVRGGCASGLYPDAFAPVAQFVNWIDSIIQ
As to the kind of experiment: Elastase inhibitory activity (fluorogenic synthetic substrate). The format is biochemical. The text has this: are the reversibly extensible, highly elastic protein that is principal constituent of elastic fibers to maintain the extensibility and elasticity of the skin. […] are degraded and synthesized in the sustainable manner, thus acting to maintain the extensibility and elasticity of the skin, but may lose their extensibility and elasticity, when the rate of their degradation by elastase owing to aging, etc. exceeds the rate of their synthesis. Accordingly, inhibition of the elastase enables the skin to maintain its extensibility and elasticity. Such being the case, the Compound of the present invention is tested for its elastase inhibitory activity in the following manner: […] Testing method […]

Where two headings read alike, the source gives them in different places.

Turning to `CCO.Cc1c(C)c2c(c(C)c1OC(=O)/C=C\C(=O)OC1=C(O)[C@@H]([C@@H](O)CO)OC1=O)CCC(C)(CCCC(C)CCCC(C)CCCC(C)C)O2` (stereo partly drawn) [Reference Example 1, L-Ascorbic acid-2-O-maleic acid-α-tocopherol diester.ethanol adduct], the Residual ratio in data set [1] (storage at 4° C.) was determined as 99.7%; in data set [1] (storage at 40° C.) it was 90.9%; in data set [1] (storage at 50° C.) it was 81.7%.
“L-Ascorbic acid-2-O-maleic acid-α-tocopherol diester.1-propanol adduct [Example 1]”: the “Elastase inhibitory activity (in words)” value in data set [2] (0.01 to 1 mM, Table 2) is recorded as “remarkable elastase inhibitory activity”. The “Ratio of elastase inhibition” value in data set [2] (test specimen 0.01 mM) worked out at 4; in data set [2] (test specimen 0.1 mM) it was 19; in data set [2] (test specimen 1 mM), 71.
